{"source": "ChEMBL document CHEMBL5678818", "about": "“Discovery of potent SOS1 inhibitors that block RAS activation via disruption of the RAS-SOS1 interaction” (Proc Natl Acad Sci U S A, 2019)", "key": {"[1]": {"biological_target": "Cyclin-dependent kinase-like 3 (Homo sapiens) (UniProt Q8IVW4)", "sequence (Q8IVW4 whole entry, looked up)": "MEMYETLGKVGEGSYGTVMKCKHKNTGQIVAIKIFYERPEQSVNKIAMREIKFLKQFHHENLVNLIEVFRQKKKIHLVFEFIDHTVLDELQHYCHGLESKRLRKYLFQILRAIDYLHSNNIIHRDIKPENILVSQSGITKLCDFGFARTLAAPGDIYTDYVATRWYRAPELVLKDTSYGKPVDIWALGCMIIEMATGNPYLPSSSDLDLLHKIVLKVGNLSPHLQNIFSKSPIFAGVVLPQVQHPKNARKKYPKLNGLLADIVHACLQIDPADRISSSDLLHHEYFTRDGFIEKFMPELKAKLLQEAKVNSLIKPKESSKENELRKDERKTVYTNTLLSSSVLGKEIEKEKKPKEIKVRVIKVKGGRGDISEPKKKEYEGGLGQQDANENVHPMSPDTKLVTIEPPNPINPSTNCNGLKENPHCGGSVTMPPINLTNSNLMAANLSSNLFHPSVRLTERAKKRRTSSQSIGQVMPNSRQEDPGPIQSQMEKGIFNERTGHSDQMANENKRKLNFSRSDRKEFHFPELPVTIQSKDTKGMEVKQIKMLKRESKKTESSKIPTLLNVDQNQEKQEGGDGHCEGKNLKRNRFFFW", "assay": "Inhibition of CDKL3 (unknown origin) assessed as residual activity at 100 nM by KINOMEscan analysis relative to control"}, "[2]": {"test_system": "Epidermal growth factor receptor (Homo sapiens), P00533 [UNDEFINED MUTATION]", "sequence (P00533 whole entry, looked up, stated change not applied)": "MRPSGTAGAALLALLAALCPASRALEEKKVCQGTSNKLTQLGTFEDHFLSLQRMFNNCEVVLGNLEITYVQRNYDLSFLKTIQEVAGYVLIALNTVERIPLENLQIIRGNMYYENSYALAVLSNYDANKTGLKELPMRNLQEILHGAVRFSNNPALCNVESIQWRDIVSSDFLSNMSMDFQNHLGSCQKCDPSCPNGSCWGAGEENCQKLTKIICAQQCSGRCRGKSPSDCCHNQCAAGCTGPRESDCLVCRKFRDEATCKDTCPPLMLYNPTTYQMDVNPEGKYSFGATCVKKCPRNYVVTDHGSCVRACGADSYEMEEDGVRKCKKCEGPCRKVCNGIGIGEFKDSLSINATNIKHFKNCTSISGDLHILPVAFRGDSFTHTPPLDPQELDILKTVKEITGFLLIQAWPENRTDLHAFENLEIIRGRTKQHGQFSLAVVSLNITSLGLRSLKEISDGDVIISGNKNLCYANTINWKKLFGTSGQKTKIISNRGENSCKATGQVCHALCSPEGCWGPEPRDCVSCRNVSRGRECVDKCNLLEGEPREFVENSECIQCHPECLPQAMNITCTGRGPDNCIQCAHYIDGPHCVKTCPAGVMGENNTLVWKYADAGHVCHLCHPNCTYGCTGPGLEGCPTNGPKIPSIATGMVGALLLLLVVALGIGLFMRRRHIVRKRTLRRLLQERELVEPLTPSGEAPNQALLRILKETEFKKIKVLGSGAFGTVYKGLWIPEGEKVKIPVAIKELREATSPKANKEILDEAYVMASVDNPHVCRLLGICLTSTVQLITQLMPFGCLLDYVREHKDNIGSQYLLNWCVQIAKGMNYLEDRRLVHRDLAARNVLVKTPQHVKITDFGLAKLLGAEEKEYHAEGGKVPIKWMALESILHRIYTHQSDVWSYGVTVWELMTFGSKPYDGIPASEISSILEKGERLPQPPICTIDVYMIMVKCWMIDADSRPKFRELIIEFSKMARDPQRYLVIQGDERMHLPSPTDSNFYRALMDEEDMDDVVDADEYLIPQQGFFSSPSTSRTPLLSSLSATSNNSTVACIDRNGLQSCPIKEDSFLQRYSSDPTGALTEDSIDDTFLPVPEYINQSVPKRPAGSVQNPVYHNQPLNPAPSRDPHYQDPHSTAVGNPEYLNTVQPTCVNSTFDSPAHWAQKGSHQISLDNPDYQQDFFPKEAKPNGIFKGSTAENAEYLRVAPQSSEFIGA", "assay": "Inhibition of EGFR L747-T751del/Sins mutant (unknown origin) assessed as residual activity at 100 nM by KINOMEscan analysis relative to control"}, "[3]": {"biological_target": "Ribosomal protein S6 kinase beta-1 (Homo sapiens) (UniProt P23443)", "sequence (P23443 whole entry, looked up)": "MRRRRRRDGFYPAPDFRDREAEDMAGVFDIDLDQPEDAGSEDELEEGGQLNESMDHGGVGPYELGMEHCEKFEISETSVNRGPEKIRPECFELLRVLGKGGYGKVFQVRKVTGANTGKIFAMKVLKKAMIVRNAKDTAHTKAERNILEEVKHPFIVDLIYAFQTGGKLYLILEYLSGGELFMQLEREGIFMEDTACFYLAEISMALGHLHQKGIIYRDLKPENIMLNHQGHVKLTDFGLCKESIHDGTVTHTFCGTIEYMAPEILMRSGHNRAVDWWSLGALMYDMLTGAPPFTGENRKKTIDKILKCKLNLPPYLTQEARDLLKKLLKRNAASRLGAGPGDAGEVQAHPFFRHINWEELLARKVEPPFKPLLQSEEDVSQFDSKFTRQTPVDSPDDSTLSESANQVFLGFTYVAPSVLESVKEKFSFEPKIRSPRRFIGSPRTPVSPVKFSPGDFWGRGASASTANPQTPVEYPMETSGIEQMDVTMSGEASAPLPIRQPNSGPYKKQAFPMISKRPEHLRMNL", "assay": "Inhibition of S6K1 (unknown origin) assessed as residual activity at 100 nM by KINOMEscan analysis relative to control"}, "[4]": {"biological_target": "T1, Serine/threonine-protein kinase PLK4 (Homo sapiens) (UniProt O00444)", "T1 sequence (whole entry)": "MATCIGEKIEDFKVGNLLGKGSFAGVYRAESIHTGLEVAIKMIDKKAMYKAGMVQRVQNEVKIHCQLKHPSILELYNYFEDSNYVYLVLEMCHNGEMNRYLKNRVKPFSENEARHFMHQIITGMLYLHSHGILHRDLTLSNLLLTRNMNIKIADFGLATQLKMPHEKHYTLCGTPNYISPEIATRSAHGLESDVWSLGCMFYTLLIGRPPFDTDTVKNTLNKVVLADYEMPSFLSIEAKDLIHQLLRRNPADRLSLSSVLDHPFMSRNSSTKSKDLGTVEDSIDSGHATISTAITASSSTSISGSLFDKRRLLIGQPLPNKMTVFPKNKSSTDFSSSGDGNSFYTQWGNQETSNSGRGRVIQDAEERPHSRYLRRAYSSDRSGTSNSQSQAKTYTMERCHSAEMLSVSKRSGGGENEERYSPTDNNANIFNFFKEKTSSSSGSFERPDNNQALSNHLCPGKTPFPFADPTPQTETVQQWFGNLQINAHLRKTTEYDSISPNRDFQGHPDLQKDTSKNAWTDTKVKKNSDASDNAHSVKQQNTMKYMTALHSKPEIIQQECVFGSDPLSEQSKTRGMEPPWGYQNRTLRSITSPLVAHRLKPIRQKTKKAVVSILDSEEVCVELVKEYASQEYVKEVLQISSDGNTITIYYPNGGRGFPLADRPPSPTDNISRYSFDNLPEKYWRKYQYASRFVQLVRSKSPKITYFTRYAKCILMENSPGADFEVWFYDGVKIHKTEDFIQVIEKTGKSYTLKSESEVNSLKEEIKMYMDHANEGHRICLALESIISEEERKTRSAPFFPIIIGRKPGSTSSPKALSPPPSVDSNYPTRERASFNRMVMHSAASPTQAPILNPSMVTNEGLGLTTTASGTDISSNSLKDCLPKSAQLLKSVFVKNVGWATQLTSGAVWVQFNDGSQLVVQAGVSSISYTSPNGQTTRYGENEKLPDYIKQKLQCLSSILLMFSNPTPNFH", "assay": "Inhibition of PLK4 (unknown origin) assessed as residual activity at 100 nM by KINOMEscan analysis relative to control"}, "[5]": {"biological_target": "Mitogen-activated protein kinase kinase kinase 9 (Homo sapiens) (UniProt P80192)", "sequence (P80192 whole entry, looked up)": "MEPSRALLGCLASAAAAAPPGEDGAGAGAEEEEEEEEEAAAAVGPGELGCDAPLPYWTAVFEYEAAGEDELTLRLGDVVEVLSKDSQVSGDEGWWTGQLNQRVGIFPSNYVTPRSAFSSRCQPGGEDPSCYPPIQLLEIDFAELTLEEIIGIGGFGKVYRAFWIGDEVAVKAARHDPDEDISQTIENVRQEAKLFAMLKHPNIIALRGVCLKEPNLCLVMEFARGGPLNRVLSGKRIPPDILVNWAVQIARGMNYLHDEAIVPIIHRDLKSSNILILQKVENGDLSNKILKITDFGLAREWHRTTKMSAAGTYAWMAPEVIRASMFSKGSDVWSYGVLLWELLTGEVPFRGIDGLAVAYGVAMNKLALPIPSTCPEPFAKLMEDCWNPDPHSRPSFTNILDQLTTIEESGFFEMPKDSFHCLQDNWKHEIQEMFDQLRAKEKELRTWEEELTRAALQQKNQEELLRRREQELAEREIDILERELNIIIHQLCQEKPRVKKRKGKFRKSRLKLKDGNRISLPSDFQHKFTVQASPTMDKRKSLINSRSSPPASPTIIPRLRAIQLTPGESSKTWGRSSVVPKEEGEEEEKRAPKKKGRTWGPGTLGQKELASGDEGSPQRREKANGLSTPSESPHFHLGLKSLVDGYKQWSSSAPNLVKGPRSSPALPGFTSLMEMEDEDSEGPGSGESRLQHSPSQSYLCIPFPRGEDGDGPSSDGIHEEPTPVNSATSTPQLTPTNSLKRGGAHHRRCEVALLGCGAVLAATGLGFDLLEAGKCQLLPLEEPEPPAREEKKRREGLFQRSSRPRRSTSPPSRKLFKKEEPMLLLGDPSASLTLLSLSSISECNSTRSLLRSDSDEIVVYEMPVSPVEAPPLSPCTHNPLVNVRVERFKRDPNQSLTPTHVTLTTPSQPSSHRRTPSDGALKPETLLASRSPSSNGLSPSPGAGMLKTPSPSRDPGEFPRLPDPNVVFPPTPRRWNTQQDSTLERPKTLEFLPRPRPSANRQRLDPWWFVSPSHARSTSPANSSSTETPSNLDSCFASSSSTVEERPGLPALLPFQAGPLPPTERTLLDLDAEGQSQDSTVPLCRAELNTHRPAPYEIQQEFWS", "assay": "Inhibition of MLK1 (unknown origin) assessed as residual activity at 100 nM by KINOMEscan analysis relative to control"}, "[6]": {"biological_target": "T2, Serine/threonine-protein kinase ULK3 (Homo sapiens) (UniProt Q6PHR2)", "T2 sequence (whole entry)": "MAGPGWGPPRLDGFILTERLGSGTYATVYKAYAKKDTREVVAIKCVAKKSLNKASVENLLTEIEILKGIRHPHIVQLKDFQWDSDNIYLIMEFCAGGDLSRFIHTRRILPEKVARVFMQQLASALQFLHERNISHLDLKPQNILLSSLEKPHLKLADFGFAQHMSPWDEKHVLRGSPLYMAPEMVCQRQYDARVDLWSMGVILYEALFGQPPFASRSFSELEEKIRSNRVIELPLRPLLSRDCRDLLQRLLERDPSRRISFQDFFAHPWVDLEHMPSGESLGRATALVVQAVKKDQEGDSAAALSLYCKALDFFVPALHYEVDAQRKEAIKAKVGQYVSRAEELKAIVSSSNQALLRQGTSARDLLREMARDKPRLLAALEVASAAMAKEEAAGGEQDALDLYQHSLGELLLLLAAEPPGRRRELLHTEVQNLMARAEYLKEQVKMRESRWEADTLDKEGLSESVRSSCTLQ", "assay": "Inhibition of ULK3 (unknown origin) assessed as residual activity at 100 nM by KINOMEscan analysis relative to control"}, "[7]": {"biological_target": "Mast/stem cell growth factor receptor Kit (Homo sapiens) (UniProt P10721)", "sequence (P10721 whole entry)": "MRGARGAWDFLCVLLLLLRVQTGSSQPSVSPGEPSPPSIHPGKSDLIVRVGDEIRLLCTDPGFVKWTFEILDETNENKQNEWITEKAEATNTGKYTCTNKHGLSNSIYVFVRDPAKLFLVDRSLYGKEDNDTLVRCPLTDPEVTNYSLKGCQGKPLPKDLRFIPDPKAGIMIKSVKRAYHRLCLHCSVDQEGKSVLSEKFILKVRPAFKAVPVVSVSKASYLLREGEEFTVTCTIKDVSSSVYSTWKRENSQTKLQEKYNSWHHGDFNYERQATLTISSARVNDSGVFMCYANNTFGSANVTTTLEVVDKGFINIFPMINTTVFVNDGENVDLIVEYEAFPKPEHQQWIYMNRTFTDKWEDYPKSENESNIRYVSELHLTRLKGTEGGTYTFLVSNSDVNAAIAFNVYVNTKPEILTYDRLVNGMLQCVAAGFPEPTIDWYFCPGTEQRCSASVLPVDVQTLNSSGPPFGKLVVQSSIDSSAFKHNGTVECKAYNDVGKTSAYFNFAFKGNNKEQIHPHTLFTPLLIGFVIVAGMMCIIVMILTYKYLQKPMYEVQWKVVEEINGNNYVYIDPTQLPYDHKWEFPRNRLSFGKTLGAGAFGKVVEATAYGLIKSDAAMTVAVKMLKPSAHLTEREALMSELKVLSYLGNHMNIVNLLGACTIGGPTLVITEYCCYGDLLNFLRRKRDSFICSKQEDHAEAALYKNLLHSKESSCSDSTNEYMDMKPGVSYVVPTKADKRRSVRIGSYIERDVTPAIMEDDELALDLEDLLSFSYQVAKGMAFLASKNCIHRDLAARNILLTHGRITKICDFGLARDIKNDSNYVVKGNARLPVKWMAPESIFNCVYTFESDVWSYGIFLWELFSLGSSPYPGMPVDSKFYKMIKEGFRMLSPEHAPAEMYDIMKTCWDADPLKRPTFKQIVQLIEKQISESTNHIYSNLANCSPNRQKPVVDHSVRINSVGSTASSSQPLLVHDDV", "assay": "Inhibition of KIT (unknown origin) assessed as residual activity at 100 nM by KINOMEscan analysis relative to control"}, "[8]": {"biological_target": "Serine/threonine-protein kinase mTOR (Homo sapiens) (UniProt P42345)", "assay": "Inhibition of MTOR (unknown origin) assessed as residual activity at 100 nM by KINOMEscan analysis relative to control"}, "[9]": {"biological_target": "T3, TGF-beta receptor type-1 (Homo sapiens) (UniProt P36897)", "T3 sequence (whole entry)": "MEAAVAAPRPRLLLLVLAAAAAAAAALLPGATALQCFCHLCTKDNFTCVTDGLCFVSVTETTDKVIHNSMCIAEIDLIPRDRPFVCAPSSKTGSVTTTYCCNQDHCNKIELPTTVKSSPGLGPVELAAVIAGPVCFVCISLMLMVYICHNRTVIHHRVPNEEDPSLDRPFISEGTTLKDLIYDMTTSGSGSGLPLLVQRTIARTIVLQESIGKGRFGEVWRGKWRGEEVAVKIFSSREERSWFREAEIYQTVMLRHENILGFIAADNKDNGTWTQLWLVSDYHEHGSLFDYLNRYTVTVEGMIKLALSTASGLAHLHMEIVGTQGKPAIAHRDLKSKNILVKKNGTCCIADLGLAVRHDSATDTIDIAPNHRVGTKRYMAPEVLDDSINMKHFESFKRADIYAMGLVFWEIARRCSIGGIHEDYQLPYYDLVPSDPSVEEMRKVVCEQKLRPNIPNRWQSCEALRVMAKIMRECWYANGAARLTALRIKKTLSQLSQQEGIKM", "assay": "Inhibition of TGFBR1 (unknown origin) assessed as residual activity at 100 nM by KINOMEscan analysis relative to control"}}}
{"smiles": "COc1cc2ncnc(N[C@H](C)c3cccc4ccccc34)c2cc1OC", "values": [{"measurement": "Activity", "setting": "[1]", "result": 100, "unit": "%"}, {"measurement": "Activity", "setting": "[2]", "result": 80, "unit": "%"}, {"measurement": "Activity", "setting": "[3]", "result": 77, "unit": "%"}, {"measurement": "Activity", "setting": "[4]", "result": 87, "unit": "%"}, {"measurement": "Activity", "setting": "[5]", "result": 100, "unit": "%"}, {"measurement": "Activity", "setting": "[6]", "result": 89, "unit": "%"}, {"measurement": "Activity", "setting": "[7]", "result": 100, "unit": "%"}, {"measurement": "Activity", "setting": "[8]", "result": 82, "unit": "%"}, {"measurement": "Activity", "setting": "[9]", "result": 83, "unit": "%"}]}
